Results on ten compounds are retold here after US20100272648A1, “Methods of Identifying Improved NMDA Receptor Antagonists” (priority 2008, published 2010).

Read-outs that look alike come from different tables or passages of the source.

In one data set the target is NR1/NR2A receptors (Rattus norvegicus, UniProt P35439+Q00959). Kind of data set: In vitro potency boost pH 6.9 vs 7.6 (NR1/NR2A, oocytes) versus infarct volume (FIG. 4). To be noted: potency boost pH 6.9 vs 7.6 versus infarct volume.
Chain of NR1/NR2A receptors (Q00959 23-1464, other chains not shown): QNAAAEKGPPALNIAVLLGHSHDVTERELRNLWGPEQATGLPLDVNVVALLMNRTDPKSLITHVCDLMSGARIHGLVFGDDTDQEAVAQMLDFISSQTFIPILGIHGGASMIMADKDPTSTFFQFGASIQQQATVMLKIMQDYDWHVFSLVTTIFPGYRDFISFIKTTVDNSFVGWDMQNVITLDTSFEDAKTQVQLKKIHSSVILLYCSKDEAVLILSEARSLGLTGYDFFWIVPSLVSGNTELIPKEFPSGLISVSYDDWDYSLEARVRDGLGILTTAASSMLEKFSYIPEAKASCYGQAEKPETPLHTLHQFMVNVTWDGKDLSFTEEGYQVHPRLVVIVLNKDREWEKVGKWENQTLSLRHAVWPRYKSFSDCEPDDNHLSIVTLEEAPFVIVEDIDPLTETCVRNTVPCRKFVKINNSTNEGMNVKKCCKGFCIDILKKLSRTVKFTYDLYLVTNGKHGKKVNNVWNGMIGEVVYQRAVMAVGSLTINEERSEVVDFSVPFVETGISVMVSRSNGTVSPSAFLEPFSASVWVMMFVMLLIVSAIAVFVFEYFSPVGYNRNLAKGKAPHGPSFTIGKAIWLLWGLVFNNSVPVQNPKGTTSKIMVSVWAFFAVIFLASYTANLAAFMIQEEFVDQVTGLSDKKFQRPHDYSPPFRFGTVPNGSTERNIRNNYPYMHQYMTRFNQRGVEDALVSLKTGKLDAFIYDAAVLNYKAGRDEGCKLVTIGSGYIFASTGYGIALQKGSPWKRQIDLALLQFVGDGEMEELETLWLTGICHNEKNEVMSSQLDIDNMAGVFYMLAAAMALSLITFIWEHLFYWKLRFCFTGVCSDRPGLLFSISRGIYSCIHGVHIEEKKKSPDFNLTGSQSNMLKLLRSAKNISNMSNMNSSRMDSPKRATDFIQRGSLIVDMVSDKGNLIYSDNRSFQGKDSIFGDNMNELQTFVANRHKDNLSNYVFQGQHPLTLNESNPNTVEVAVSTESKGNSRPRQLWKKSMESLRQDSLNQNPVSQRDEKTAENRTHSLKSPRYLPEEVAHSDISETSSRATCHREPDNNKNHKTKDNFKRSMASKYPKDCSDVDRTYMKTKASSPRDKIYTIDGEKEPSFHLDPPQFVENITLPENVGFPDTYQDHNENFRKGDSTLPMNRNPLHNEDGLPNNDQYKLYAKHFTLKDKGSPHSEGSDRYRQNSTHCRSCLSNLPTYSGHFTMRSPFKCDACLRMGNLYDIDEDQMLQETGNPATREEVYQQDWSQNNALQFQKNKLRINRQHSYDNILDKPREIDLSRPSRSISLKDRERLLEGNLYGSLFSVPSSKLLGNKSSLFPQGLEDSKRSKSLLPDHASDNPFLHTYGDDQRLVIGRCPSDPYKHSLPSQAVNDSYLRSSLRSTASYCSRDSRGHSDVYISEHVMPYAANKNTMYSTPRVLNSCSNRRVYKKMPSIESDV
Data set [1] has as its system infarct volume. Conditions: cats and rats, highest dose tested; cited from earlier work.
The target in data set [2] is rat NMDA-NR2B containing receptors (Rattus norvegicus, UniProt P35439+Q00960). As to the kind of experiment: pH potency boost, Xenopus oocyte assay, rat receptor cDNA. It is filed as cell-based. Conditions: pH 6.9 vs 7.6, rat receptors. From the text: (§1) In vitro transcribed cRNA was purified using standard methods.
Chain of rat NMDA-NR2B containing receptors (Q00960 27-1482, other chains not shown): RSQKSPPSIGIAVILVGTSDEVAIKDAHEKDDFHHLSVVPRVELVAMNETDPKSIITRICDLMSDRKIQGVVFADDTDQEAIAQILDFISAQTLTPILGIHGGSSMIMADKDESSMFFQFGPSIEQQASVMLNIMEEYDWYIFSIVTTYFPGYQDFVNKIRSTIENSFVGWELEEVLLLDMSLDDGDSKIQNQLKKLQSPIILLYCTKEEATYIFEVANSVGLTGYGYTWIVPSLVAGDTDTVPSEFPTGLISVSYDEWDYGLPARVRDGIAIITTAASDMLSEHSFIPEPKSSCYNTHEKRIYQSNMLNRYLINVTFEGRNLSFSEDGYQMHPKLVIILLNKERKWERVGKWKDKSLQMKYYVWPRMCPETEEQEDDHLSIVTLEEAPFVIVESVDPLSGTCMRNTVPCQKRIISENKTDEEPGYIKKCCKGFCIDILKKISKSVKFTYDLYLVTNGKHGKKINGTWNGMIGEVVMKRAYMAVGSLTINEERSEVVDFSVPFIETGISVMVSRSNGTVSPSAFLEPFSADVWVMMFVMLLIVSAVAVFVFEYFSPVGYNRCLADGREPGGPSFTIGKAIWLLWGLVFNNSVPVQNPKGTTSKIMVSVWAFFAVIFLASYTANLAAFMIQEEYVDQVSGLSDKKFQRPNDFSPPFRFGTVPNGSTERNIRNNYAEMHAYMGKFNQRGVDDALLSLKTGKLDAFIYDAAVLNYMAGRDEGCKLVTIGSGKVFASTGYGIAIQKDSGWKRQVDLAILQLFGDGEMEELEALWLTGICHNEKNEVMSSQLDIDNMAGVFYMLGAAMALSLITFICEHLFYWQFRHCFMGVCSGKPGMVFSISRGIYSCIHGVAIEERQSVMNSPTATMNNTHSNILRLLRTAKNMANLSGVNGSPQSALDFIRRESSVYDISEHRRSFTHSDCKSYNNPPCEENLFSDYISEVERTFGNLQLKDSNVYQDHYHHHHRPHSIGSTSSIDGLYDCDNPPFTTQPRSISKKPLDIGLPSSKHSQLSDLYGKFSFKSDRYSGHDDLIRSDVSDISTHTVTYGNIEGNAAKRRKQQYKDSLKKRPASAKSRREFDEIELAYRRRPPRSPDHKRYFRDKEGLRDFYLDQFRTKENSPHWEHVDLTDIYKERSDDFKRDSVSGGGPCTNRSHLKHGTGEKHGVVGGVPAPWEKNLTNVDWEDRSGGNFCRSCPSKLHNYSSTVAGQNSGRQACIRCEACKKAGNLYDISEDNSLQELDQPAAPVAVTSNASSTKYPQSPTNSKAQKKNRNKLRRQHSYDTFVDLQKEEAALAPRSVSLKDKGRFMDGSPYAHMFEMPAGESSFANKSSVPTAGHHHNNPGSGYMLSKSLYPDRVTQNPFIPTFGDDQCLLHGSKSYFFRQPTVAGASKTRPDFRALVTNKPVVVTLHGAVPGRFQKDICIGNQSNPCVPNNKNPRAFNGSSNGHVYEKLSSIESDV
(§2) Preparation of pH-dependent NMDA receptor antagonists for testing.
(§3) Voltage-clamp recordings from Xenopus oocytes.
(§4) Determination of a pH dependent potency boost in antagonism, defined as the […].

Data set [3] concerns the target human NMDA-NR2B containing receptors (Homo sapiens, UniProt Q05586+Q13224). As to the kind of experiment: pH potency boost, Xenopus oocyte assay, human receptor cDNA. Conditions: for HUMAN Boost: pH potency boost, pH 6.9 vs 7.6, human receptors; for Absolute Boost Difference: rat versus human pH potency boost. The data set is classed as cell-based.
Description: as §1, §2, §3, §4

The subject of data set [4] is infarct volume. Conditions: rats, after middle cerebral artery occlusion; cited from earlier work.
In data set [5] the test system is infarct volume. To be noted: cats, highest dose tested; cited from earlier work.
The next data set deals with dyskinesias. Conditions: add-on therapy with L-DOPA, patients; cited from earlier work.
The nature of data set [6]: Locomotor activity of rats (light beam breaks). The data set is classed as in vivo, Sprague-Dawley rats. To be noted: IP, varying doses (3-300 mg/kg, compound-specific), monitored 2 hours after injection. The procedure: Locomotor activity was monitored after injection for 2 hours.

Chain of human NMDA-NR2B containing receptors (Q13224 27-1484, other chains not shown): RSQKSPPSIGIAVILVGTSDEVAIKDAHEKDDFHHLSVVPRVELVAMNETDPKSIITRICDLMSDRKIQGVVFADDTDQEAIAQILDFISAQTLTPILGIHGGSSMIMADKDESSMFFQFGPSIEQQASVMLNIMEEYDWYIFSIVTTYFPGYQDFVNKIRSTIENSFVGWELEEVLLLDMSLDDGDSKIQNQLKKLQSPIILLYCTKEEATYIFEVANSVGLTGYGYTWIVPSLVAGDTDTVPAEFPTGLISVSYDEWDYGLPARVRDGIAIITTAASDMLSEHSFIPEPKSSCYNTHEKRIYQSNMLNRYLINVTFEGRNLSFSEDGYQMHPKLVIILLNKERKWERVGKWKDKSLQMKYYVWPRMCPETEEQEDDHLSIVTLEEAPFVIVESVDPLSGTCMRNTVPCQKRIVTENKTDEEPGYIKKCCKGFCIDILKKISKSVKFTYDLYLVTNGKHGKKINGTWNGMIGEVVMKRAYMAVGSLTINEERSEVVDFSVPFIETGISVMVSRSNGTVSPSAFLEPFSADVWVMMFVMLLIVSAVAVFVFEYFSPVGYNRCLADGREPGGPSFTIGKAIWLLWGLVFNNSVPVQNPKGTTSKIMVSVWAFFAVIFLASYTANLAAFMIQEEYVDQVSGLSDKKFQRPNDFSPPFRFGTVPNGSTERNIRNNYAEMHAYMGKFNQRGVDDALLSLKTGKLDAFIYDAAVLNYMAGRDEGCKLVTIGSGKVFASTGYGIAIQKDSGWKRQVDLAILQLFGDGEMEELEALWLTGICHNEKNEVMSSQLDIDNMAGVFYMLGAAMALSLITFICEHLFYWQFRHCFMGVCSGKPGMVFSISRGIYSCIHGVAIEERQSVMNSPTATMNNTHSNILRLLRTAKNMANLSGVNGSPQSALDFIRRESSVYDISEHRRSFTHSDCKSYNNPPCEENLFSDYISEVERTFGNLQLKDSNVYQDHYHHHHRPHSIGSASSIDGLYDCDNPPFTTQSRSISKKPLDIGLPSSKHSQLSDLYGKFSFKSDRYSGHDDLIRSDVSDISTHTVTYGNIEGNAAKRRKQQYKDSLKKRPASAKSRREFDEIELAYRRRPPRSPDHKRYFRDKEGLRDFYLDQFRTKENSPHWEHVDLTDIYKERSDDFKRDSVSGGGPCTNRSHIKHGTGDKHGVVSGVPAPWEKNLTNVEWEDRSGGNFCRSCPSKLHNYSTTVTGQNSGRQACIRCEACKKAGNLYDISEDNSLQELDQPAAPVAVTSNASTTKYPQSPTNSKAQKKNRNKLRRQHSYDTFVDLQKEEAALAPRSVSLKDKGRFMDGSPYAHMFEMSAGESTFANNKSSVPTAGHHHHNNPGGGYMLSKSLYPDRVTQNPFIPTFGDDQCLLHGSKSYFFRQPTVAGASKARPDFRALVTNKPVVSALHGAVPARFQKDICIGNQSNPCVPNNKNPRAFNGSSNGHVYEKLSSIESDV
Description for NR1/NR2A receptors: Expression of NMDA receptors in Xenopus oocytes. cRNA was synthesized from linearized template cDNA for NMDA receptor subunits (NR1-1a, NR2B, NR2A) according to manufacturer specifications (Ambion:). cDNAs used corresponded to GenBank numbers U08261 and U11418 (NR1-1a), AF001423 and CD13211 (NR2A), U11419 (NR2B). Briefly, cDNA was linearized with an appropriate restriction enzyme downstream of the coding region, purified, and incubated with RNA polymerase and appropriate concentrations of ribonucleotides. In vitro transcribed cRNA was purified using standard methods. Quality of synthesized cRNA was assessed by gel electrophoresis, and quantity was estimated by spectroscopy and gel electrophoresis. Stage V and VI oocytes were surgically removed from the ovaries of large, well-fed and healthy Xenopus laevis anesthetized with 3-amino-benzoic acid ethyl ester (1 gm/l). Clusters of oocytes were incubated with 292 Uml Worthington (Freehold, N.J.) type IV collagenase or 1.3 mg/ml collagenase (Life Technologies, Gaithersburg, Md.; 17018-029) for 2 hr in Ca2+-free solution comprised of (in mM) 115 NaCl, 2.5 KCl, and 10 HEPES, pH 7.5, with slow agitation to remove the follicular cell layer. […]

In the case of `CNC1(c2ccccc2Cl)CCCCC1=O` (stereo not drawn) [ketamine], on NR1/NR2A receptors, the “mean within shaded area (criteria for superior drug performance), NR1/NR2A” value was “fall within the shaded area”.

For `OC(CN1CCC(Cc2ccc(F)cc2)CC1)c1ccc(Cl)cc1` (stereo not drawn) [SL 82.0715], the “decrease in infarct volume” value in the data set on infarct volume [1] was 36-48%.

`CCCCN(CCc1ccc(Cl)c(Cl)c1)CC(O)COc1ccc(NS(C)(=O)=O)cc1` (stereo not drawn) [Compound 93-88]: the “RAT Boost” value in data set [2] is recorded as 6.3. Also, in data set [3], the “HUMAN Boost” value is recorded as 22.1 and the “Absolute Boost Difference” value amounted to 15.8.

As to `C/C=C/CN(CCc1ccc(Cl)c(Cl)c1)CC(O)COc1ccc(NS(C)(=O)=O)cc1` (stereo not drawn) [Compound 93-128], the “RAT Boost” value in data set [2] worked out at 4.1. Also, in data set [3], the “HUMAN Boost” value amounted to 18.0 and the “Absolute Boost Difference” value came to 13.9.

Turning to `CS(=O)(=O)Nc1ccc(OCC(O)CN(CCc2ccc(Cl)c(Cl)c2)Cc2ccccc2)cc1` (stereo not drawn) [Compound 93-30], in data set [2], the “RAT Boost” value came to 7.4. In data set [3], the “HUMAN Boost” value stood at 21.0 and the “Absolute Boost Difference” value turned out to be 13.6.

Regarding `CS(=O)(=O)Nc1ccc(OCC(O)CN2CCN(c3ccc(F)c(F)c3)CC2)cc1` (stereo not drawn) [Compound 93-108], in data set [2], the “RAT Boost” value stood at 3.4. In data set [3], the “HUMAN Boost” value is 17.7 and the “Absolute Boost Difference” value is 14.3.

As for `CC(C(O)c1ccc(O)cc1)N1CCC(Cc2ccccc2)CC1` (stereo not drawn) [Ifenprodil], the results for the “decrease in infarct volume” value in the data set with infarct volume [4] and in the data set on infarct volume [5] were 22% and 42%, respectively.

Turning to `NC12CC3CC(CC(C3)C1)C2` [Amantadine], the “reduction of severity of dyskinesias” value in the data set on dyskinesias is given as 60%.

For the compound `CS(=O)(=O)Nc1ccc(OCC2CN(CCc3cc(Cl)c(Cl)s3)C(c3c(F)c(F)c(F)c(F)c3F)O2)cc1` (stereo not drawn) [Compound 93-176], the “RAT Boost” value in data set [2] is given as 34.5. Besides, in data set [3], the “HUMAN Boost” value is listed as 29.9 and the “Absolute Boost Difference” value came to 4.6.

With (+)MK801, in data set [6], the “effects on locomotor activity” value is listed as “stereotypical biphasic effects”.
